Values after ≈ are worked out from the molar mass of the structure shown.
How the values were obtained:
HIV-1 IIIB strain = assay: MT-4 HIV Wild Type Virus Infection Assay (IIIB Virus); type: cell-based; details: Human immunodeficiency virus 1, IIIB, MT4, 120 h, MT-4 cells acutely infected with HIV-1 IIIB, 5 day incubation, Cell-titer glo
Summary of the method: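 MT-4 cells at 2×10^6 cells/ml in RPMI/10% FBS were acutely infected with HIV-1 IIIB for 1 h at 37° C, diluted 25× and added to serially diluted compounds. After 5 days at 37° C, viability read by CellTiter-Glo luminescence; EC50 from dose-response curves.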

[1] = biological target: bovine intestinal alkaline phosphatase (Bos taurus (Bovine), UniProt P19111); assay: BiALP: conversion by bovine intestinal alkaline phosphatase; type: in vitro ADME; details: 2 μM substrate, 100 ng/mL iALP, Tris pH 7.8, 37° C., 60 minutes; for [Intermediate A] or [Amprenavir]: parent formed
Summary of the method: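 LC-MS (positive mode) quantified analyte/internal-standard peak area ratios, referenced to 2 μM parent product. This followed a 60 min, 37° C reaction of 2 μM substrate in Tris buffer pH 7.8 (1 mM MgCl2, 1 mM ZnCl2) containing 100 ng/mL iALP or buffer alone, run in triplicate.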

[2] = Intestinal S9 Assay (human GI S9); type: in vitro ADME; details: 1.0 mg/mL S9 protein; for half-life at 2 μM: human, TRIS pH 7.4, read-out: Human GI S9 T½
Protocol: (§1) Reagents. Stock solutions of test compounds in dimethyl sulfoxide (DMSO) having a final concentration of 10 mM were prepared and used in all experiments. Sekisui XenoTech (Kansas City, KS) provided pooled intestinal S9 fractions. All other chemicals were purchased from Sigma-Aldrich (St. Louis, MO) or VWR (West Chester, PA). Internal Standard/Quench (IS/Q) used to stop reactions was 100 nM labetalol in (by volume) formic acid (1%) and acetonitrile (99%).
(§2) Intestinal S9 Assay: For each test compound, an aliquot of the test compound was added to S9 stock diluted with TRIS buffer (100 mM TRIS, 1 mM ZnCl2, 1 mM MgCl2), pH 7.4, to obtain an incubation protein concentration of 1.0 mg/mL. The incubation was initiated by the addition of the substrate to the S9 reaction mixture to a final concentration of 2 μM. At 0, 10, 20, 30, 60 and 120 min, 25 μL aliquots of the reaction mixture were transferred to plates containing 225 μl of IS/Q solution. After quenching, the plates were centrifuged at 3000×g for 30 minutes. 150 μL aliquots of each supernatant were transferred to new plates and 150 μL water was added. Aliquots (10 μL) of the prepared samples were analyzed on a Thermo Q-Exactive mass spectrometer as described below.
(§3) Liquid Chromatography-Mass Spectrometry: Quantification of test compounds and control substrate was performed by analyte/internal standard peak area ratio (PAR) values measured on a Thermo Q-Exactive mass spectrometer coupled to a Dionex UltiMate 3000 HPLC with a Leap Technologies HTC PAL autosampler. The column used for analysis was a Thermo Scientific Hypersil GOLD (1.9 μm particle size, 50×2.1 mm). Mobile phase A consisted of 0.1% (v/v) formic acid in water. Mobile phase B consisted of 0.1% (v/v) formic acid in acetonitrile. Elution of analytes was achieved by a series of linear gradients varying the proportions of A and B. The mass spectrometer was calibrated on a weekly basis and mass tolerance of 5 ppm was used.
(§4) Data Analysis. Metabolic stabilities were determined by measuring the rates of disappearance of test compound and positive control substrate. Data (% of substrate remaining) were plotted on a semi-log scale and fitted using an exponential decline model:
(§5) where • Ct% of substrate remaining at time=t • C0% of substrate remaining at time=0 • t time • T½ half-life • The Half-life (T½) is determined by the following equation:
(§6) [formula] • Assuming a first-order reaction, the slope (k) is extrapolated from the aforementioned plotted data.

[3] = Intestinal S9 Assay (dog GI S9); type: in vitro ADME; details: 1.0 mg/mL S9 protein; for Dog GI S9 [Intermediate A] / Dog GI S9 [Intermediate A] %: 2 μM, TRIS pH 7.4; for half-life at 2 μM: dog, TRIS pH 7.4, read-out: Dog GI S9 T½
Protocol: as §1, §2, §3, §4, §5, §6

Solubility in FaSSIF = details: 23 °C, pH 6.5, fassif, thermodynamic from solid
Summary of the method: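 Concentration measured by HPLC-UV after solid compound was dosed at 5 mg/mL into pH 6.5 fasted-state simulated intestinal fluid containing taurocholate and lecithin (4:1 molar) and vortexed.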

Chain of bovine intestinal alkaline phosphatase (P19111 20-506): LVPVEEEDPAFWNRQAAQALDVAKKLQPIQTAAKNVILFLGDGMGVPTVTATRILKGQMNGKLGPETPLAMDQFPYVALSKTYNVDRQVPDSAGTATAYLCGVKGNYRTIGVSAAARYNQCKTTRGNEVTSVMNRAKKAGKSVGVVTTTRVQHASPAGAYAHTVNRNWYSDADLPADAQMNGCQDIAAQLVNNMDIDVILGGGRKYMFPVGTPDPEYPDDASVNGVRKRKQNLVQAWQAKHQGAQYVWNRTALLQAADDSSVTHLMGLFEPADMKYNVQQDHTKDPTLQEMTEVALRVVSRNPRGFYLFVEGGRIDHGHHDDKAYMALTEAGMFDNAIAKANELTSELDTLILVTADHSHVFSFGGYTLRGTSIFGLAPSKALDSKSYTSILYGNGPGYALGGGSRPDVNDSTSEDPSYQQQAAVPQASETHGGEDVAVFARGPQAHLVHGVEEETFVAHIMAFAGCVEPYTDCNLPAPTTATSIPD

| Structure (SMILES) | EC50 (HIV-1 IIIB strain) [nM] | [Compound] [1] [nM] | biALP Intermediate A or [Amprenavir] (% of total) [1] | [Intermediate A] or [Amprenavir] [1] [nM] | Human GI S9 [Intermediate A] ([2]; 2 μM, TRIS pH 7.4) [nM] | Human GI S9 [Intermediate A] % ([2]; 2 μM, TRIS pH 7.4) [%] | half-life at 2 μM [2] [h] | Dog GI S9 [Intermediate A] [3] [nM] | Dog GI S9 [Intermediate A] % [3] [%] | half-life at 2 μM [3] [h] | solubility at 2 h (Solubility in FaSSIF) [µg/mL] | Human GI S9 T½ ([2]; 2 μM, TRIS pH 7.4) [h] |
| --- | --- | --- | --- | --- | --- | --- | --- | --- | --- | --- | --- | --- |
| COC(=O)N[C@H](C(=O)N[C@@H](Cc1ccc(C#Cc2cnc(N3CC4CCC(C3)N4C3COC3)nc2)cc1)[C@H](CN(Cc1c(F)cc(-c2ccn(C(F)F)n2)cc1F)NC(=O)[C@@H](NC(=O)OC)C(C)(C)C(F)(F)F)OC(=O)CC(C)(C)c1c(CC(=O)Nc2cc(C(=O)O)cc(C(=O)O)c2)cccc1OP(=O)(O)O)C(C)(C)C(F)(F)F [Example 19] | 38.9 | 1405.7 | 18.4 % of total | 317.9 | 323.6 | 22.1 | 3.83 | 1045.1 | 94.7 | 0.3 | 3650 (≈ 2230 µM) |  |
| COC(=O)N[C@H](C(=O)N[C@@H](Cc1ccc(C#Cc2cnc(N3CC4CCC(C3)N4C3COC3)nc2)cc1)[C@H](CN(Cc1c(F)cc(-c2ccn(C(F)F)n2)cc1F)NC(=O)[C@@H](NC(=O)OC)C(C)(C)C(F)(F)F)OC(=O)CC(C)(C)c1c(CC(=O)NC2(C(=O)O)CCOCC2)cc(C)cc1OP(=O)(O)O)C(C)(C)C(F)(F)F [Example 31] | 276 | 2125.6 |  |  |  |  | 8.24 |  |  | 3.71 | 3510 (≈ 2180 µM) |  |
| COC(=O)N[C@H](C(=O)N[C@@H](Cc1ccc(C#Cc2cnc(N3CC4CCC(C3)N4C3COC3)nc2)cc1)[C@H](CN(Cc1c(F)cc(-c2ccn(C(F)F)n2)cc1F)NC(=O)[C@@H](NC(=O)OC)C(C)(C)C(F)(F)F)OC(=O)CC(C)(C)c1c(CC(=O)N[C@@H](CCS(=O)(=O)O)C(=O)O)cccc1OP(=O)(O)O)C(C)(C)C(F)(F)F [Example 40] | 40.5 | 1458.8 |  |  |  |  | 4.76 |  |  | 0.537 | 4910 (≈ 3000 µM) |  |
| COC(=O)N[C@H](C(=O)N[C@@H](Cc1ccc(C#Cc2cnc(N3CC4CCC(C3)N4C3COC3)nc2)cc1)[C@H](CN(Cc1c(F)cc(-c2ccn(C(F)F)n2)cc1F)NC(=O)[C@@H](NC(=O)OC)C(C)(C)C(F)(F)F)OC(=O)CC(C)(C)c1c(CC(=O)N2CCC[C@H]2C(=O)O)cccc1OP(=O)(O)O)C(C)(C)C(F)(F)F [Example 46] | 190 | 1864.7 |  |  |  |  | 7.41 |  |  | 5.08 | 2870 (≈ 1830 µM) |  |
| COC(=O)N[C@H](C(=O)N[C@@H](Cc1ccc(C#Cc2cnc(N3CC4CCC(C3)N4C3COC3)nc2)cc1)[C@H](CN(Cc1c(F)cc(-c2ccn(C(F)F)n2)cc1F)NC(=O)[C@@H](NC(=O)OC)C(C)(C)C(F)(F)F)OC(=O)CC(C)(C)c1c(CC(=O)N2C[C@H]3[C@@H]([C@H]2C(=O)O)C3(C)C)cc(C)cc1OP(=O)(O)O)C(C)(C)C(F)(F)F [Example 47] | 593 | 1950.3 |  |  |  |  | 6.39 |  |  | 7.34 | 3620 (≈ 2230 µM) |  |
| COC(=O)N[C@H](C(=O)N[C@@H](Cc1ccc(C#Cc2cnc(N3CC4CCC(C3)N4C3COC3)nc2)cc1)[C@H](CN(Cc1c(F)cc(-c2ccn(C(F)F)n2)cc1F)NC(=O)[C@@H](NC(=O)OC)C(C)(C)C(F)(F)F)OC(=O)CC(C)(C)c1c(CC(=O)N2[C@@H](C)CC[C@H]2C(=O)O)cc(C)cc1OP(=O)(O)O)C(C)(C)C(F)(F)F [Example 54] | 94 | 1661.6 |  |  |  |  | 12.9 |  |  | 9.44 | 3080 (≈ 1930 µM) |  |
| COC(=O)N[C@H](C(=O)N[C@@H](Cc1ccc(C#Cc2cnc(N3CC4CCC(C3)N4C3COC3)nc2)cc1)[C@H](CN(Cc1c(F)cc(-c2ccn(C(F)F)n2)cc1F)NC(=O)[C@@H](NC(=O)OC)C(C)(C)C(F)(F)F)OC(=O)CC(C)(C)c1c(CC(=O)N2[C@H](C(=O)O)C[C@@H]3CCCC[C@@H]32)cc(C)cc1OP(=O)(O)O)C(C)(C)C(F)(F)F [Example 55] | 3480 | 1659.2 |  |  |  |  | 12.7 |  |  | 12 | < 1000 |  |
| COC(=O)N[C@H](C(=O)N[C@@H](Cc1ccc(C#Cc2cnc(N3CC4CCC(C3)N4C3COC3)nc2)cc1)[C@H](CN(Cc1c(F)cc(-c2ccn(C(F)F)n2)cc1F)NC(=O)[C@@H](NC(=O)OC)C(C)(C)C(F)(F)F)OC(=O)CC(C)(C)c1c(CC(=O)N2C[C@@H](O)C[C@H]2C(=O)O)cc(C)cc1OP(=O)(O)O)C(C)(C)C(F)(F)F [Example 56] | 254 | 1576.7 |  |  |  |  |  |  |  | 6.89 | 2400 (≈ 1500 µM) | 13.2 |
| COC(=O)N[C@H](C(=O)N[C@@H](Cc1ccc(C#Cc2cnc(N3CC4CCC(C3)N4C3COC3)nc2)cc1)[C@H](CN(Cc1c(F)cc(-c2ccn(C(F)F)n2)cc1F)NC(=O)[C@@H](NC(=O)OC)C(C)(C)C(F)(F)F)OC(=O)CC(C)(C)c1c(CC(=O)N2CC[C@@H](O)[C@H]2C(=O)O)cc(C)cc1OP(=O)(O)O)C(C)(C)C(F)(F)F [Example 57] | 290 | 1612.8 |  |  |  |  | 11 |  |  | 7.19 | 4100 (≈ 2560 µM) |  |
| COC(=O)N[C@H](C(=O)N[C@@H](Cc1ccc(C#Cc2cnc(N3CC4CCC(C3)N4C3COC3)nc2)cc1)[C@H](CN(Cc1c(F)cc(-c2ccn(C(F)F)n2)cc1F)NC(=O)[C@@H](NC(=O)OC)C(C)(C)C(F)(F)F)OC(=O)CC(C)(C)c1c(CC(=O)N2C[C@H](O)C[C@H]2C(=O)O)cc(C)cc1OP(=O)(O)O)C(C)(C)C(F)(F)F [Example 58] | 370 | 1573.2 |  |  |  |  | 12.1 |  |  | 7.23 | 4460 (≈ 2800 µM) |  |
| COC(=O)N[C@H](C(=O)N[C@@H](Cc1ccc(C#Cc2cnc(N3CC4CCC(C3)N4C3COC3)nc2)cc1)[C@H](CN(Cc1c(F)cc(-c2ccn(C(F)F)n2)cc1F)NC(=O)[C@@H](NC(=O)OC)C(C)(C)C(F)(F)F)OC(=O)CC(C)(C)c1c(CC(=O)NCc2ccc(S(N)(=O)=O)cc2)cc(C)cc1OP(=O)(O)O)C(C)(C)C(F)(F)F [Example 62] | 280 | 2213.4 | 0 % of total | 0 | 22.2 | 1.8 |  | 38.3 | 3.1 | 13.2 |  |  |

— US20250051375A1, “ANTI-HIV COMPOUNDS” (Gilead Sciences, Inc., priority 2023, published 2025)
